Patent US20190117586A1, “METHODS OF PREVENTING OR TREATING PARKINSON'S DISEASE BY THE FARNESYLATION OF PARIS” (The Johns Hopkins University, priority 2016, published 2019)

Assays:
[1] = test system: PGC-1α; assay: PGC-1α levels in SH-SY5Y cells by immunoblot; assay type: cell-based; settings: FIG. 3H
Protocol: The 9 compounds that activate the PGC-1α promoter in the presence of PARIS were evaluated to determine which compounds induce PGC-1α levels in SH-SY5Y cells (FIGS. 2A and 2B). […] The mRNA level of PGC-1α target genes including copper/zinc superoxide dismutase (SOD1), manganese SOD (SOD2), glutathione peroxidase (GPx1), catalase (CAT), nuclear respiratory factor-1 (NRF-1), mitochondrial transcription factor A (TFAM), mitochondrial uncoupling proteins (UCP2 and UCP3), and the oxidative phosphorylation regulators, ATP5b, cytochrome C (CytC) and cytochrome C oxidase (COX II and IV) were determined by real-time quantitative RT-PCR (qRT-PCR) (FIG. 2C).
(§1) Geraniol or geranylgeraniol have no effect on PGC-1α levels (FIG. 3H).

[2] = test system: PARIS; assay: PARIS farnesylation in SH-SY5Y cells transfected with Flag-tagged PARIS (immunoprecipitation); assay type: cell-based; settings: PARIS overexpression, farnesol
Protocol: as §1
To confirm that farnesylation of PARIS requires FTase, siRNA-FTase α knockdown or FTI-277 inhibition of FTase in the setting of PARIS overexpression was performed (FIG. 4C). […] To ascertain whether the farnesylation of PARIS affects the DNA binding activity of PARIS on the IRS motif of the PGC-1α promoter, a chromatin immunoprecipitation assay (ChIP) was performed from SH-SY5Y transfected with GFP-tagged PARIS WT or GFP-tagged PARIS C631S. […] To examine the possibility that the farnesylation of PARIS alters its subcellular distribution, subcellular fractionation was used to monitor the levels of PARIS in cytosolic, membrane, soluble nuclear, and chromatin-bound nuclear fractions by immunoblot analysis (FIG. 4F).

[3] = target: FTase (Homo sapiens, UniProt P49354+P49356); assay: In vitro farnesylation of recombinant GST-PARIS by FTase and FPP; assay type: biochemical
Protocol: Next, a biotechnological approach to confirm that PARIS is prenylated was applied (Nguyen et al., 2009). The total cell lysate of SH-SY5Y cells transfected with Flag-tagged PARIS was incubated with a biotin-functionalized geranyl pyrophosphate analogue (Biotin-GPP) and the recombinant FTase W102T/Y154T mutant, which was engineered to utilize Biotin-GPP as a lipid donor (Nguyen et al., 2009). […] In addition, the immunoprecipitate of Flag-tagged PARIS from SH-SY5Y cells transfected with either siRNA-control or siRNA-FTase α was mixed with NBD-GPP, a […] fluorescent analog of FPP for an in vitro farnesylation assay (IVF). […] To determine whether FTase directly farnesylates PARIS, recombinant GST-PARIS was incubated with FTase and FPP in the presence and absence of the FTase inhibitor, FTI-277. GST-PARIS undergoes farnesylation by FTase, which is abolished by the addition of FTase inhibitor, FTI-277 (FIG. 3E).
The in vitro farnesylation assay (IVF) was performed as described (Nguyen et al., 2009; Nguyen et al., 2010; Wu et al., 2007). Briefly, for metabolic global farnesylation, 5 μCi [^3H]-farnesyl pyrophosphate (FPP) (NET1042001MC, PerkinElmer) was treated into SH-SY5Y cells and immunoprecipitant was monitored by immunoblot analysis with Farnesyl antibody. […] For fluorescence-based IVF, immunoprecipitated Flag-tagged PARIS was incubated for 20 min with NBD-GPP (LI-014, Jena Bioscience). […]

SMILES	PGC-1α levels, specificity test with compounds of similar structure [1]	farnesylation of PARIS by farnesol under FTase inhibition [2]	farnesylation of GST-PARIS by FTase [3]
CC(C)=CCC/C(C)=C/CC/C(C)=C/CC/C(C)=C/CO [geranylgeraniol]	no effect	–	–
CC(C)=CCC/C(C)=C/CO [Geraniol]	no effect	–	–
COC(=O)[C@H](CCSC)NC(=O)c1ccc(NC[C@@H](N)CS)cc1-c1ccccc1 [FTI-277, reference compound]	–	strongly prevents farnesylation of PARIS by farnesol	abolished
